Among the data in patent US8569493B2 (Santen Pharmaceutical Co., Ltd., priority 2007, dated 2013) are inhibition values, retold here.

The term inhibition denotes the drop in the measured response relative to a control, in per cent.

The assay deals with T1, Recombinant human GR (Homo sapiens, UniProt P04150).
T1 construct: purchased Invitrogen P2816
T1 sequence (P04150 1-777): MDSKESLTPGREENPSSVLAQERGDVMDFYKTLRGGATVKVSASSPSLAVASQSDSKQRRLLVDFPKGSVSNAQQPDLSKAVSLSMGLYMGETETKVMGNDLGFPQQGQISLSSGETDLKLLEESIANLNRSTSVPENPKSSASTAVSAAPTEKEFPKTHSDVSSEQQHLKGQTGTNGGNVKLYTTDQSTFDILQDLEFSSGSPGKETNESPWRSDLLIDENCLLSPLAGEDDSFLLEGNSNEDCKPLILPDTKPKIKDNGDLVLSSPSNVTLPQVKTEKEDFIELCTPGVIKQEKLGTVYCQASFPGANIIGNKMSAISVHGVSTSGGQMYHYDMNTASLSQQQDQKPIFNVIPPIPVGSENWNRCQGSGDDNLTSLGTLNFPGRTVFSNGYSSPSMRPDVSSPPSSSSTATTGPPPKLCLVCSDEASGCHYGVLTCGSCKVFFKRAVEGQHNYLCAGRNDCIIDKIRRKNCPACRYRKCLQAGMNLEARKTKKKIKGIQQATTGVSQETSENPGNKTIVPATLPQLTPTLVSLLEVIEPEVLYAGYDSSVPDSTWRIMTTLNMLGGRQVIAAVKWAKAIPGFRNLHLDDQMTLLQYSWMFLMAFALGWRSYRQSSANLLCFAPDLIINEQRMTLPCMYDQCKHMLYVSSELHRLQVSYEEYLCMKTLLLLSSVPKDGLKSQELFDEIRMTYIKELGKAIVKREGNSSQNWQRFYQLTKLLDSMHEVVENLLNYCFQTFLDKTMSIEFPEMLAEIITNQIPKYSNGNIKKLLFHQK
Description: GR competitor assay by fluorescence polarization (binding activity to glucocorticoid receptor). The following applies: 20 μM test compound solution, 10 μL per well plus 5 μL 4×GS1 and 5 μL 4×GR; 2 to 4 hours at room temperature; ratio of 100% or more is indicated by 100%. The protocol:
1. Evaluation Test for Binding Activity to Glucocorticoid Receptor (hereinafter referred to as “GR”)
In order to evaluate a binding activity to GR, a receptor competitor assay was carried out by a fluorescence polarization method. In the assay, a GR competitor assay kit (manufactured by Invitrogen, cat No. P2816) was used, and a procedure was carried out according to the protocol attached to the kit. Hereinafter, the specific method will be described.
(Preparation of Reagents)
GR screening buffer: A buffer containing 10 mM potassium phosphate (pH 7.4), 20 mM sodium molybdate (Na2MoO4), 0.1 mM ethylene diamine tetraacetic acid (EDTA), 5 mM dithiothreitol (DTT), 0.1 mM stabilizing peptide and 2% dimethylsulfoxide was prepared.
4×GS1 solution: Fluormone™ GS1, which is a fluorescent glucocorticoid ligand, was diluted with GR screening buffer, whereby a 4 nM solution was prepared.
4×GR solution: Recombinant human GR was diluted with GR screening buffer, whereby a 16 nM solution was prepared.
(Preparation of Test Compound Solution)
After a test compound was dissolved in dimethylsulfoxide, it was diluted with GR screening buffer, whereby a 20 μM test compound solution was prepared.
(Test Method and Measurement Method)
1) The test compound solution was added in an amount of 10 μL into each well of a 384-well plate, and then, 4×GS1 solution and 4×GR solution were added in an amount of 5 μL into each well, respectively.
2) The plate was incubated in a dark place at room temperature for 2 to 4 hours.
3) By using a multimode plate reader, Analyst™ HT (manufactured by LJL Biosystems), fluorescence polarization of each well was measured. As the blank, a well containing GR screening buffer in place of the test compound and 4×GS1 solution was used.
4) The same procedure as that in the above 1) to 3) was carried out except that GR screening buffer was used in place of the test compound solution, and the obtained result was taken as the negative control.
5) The same procedure as that in the above 1) to 3) was carried out except that 2 mM dexamethasone was used in place of the test compound solution, and the obtained result was taken as the positive control.
(Calculation Equation of GR Binding Ratio)
A GR binding ratio (%) was calculated from the following equation. GR binding ratio(%)=100×[1−(fluorescence polarization of test compound solution−fluorescence polarization of positive control solution)/(fluorescence polarization of negative control solution−fluorescence polarization of positive control solution)] (Test Results and Discussion)
As for `COc1ccc([N+](=O)[O-])cc1OCc1c(-c2ccc(OS(=O)(=O)C(C)C)cc2OC)ccc2c1N(C)C(=O)C(C)(C)N2` [Compound 1-42], the inhibition at 10 µM was found to be 100%.

As to `COc1ccc([N+](=O)[O-])cc1OCc1c(-c2ccc(OS(=O)(=O)C3CC3)cc2OC)ccc2c1N(C)C(=O)C(C)(C)N2` [Compound 1-43], the inhibition at 10 µM was 100%.

Turning to `CCCS(=O)(=O)Oc1ccc(-c2ccc3c(c2COc2cc([N+](=O)[O-])ccc2OC)N(C)C(=O)C(C)(C)N3)c(OC)c1` [Compound 1-44], the inhibition at 10 µM is 93%.

With `COc1cc(OS(=O)(=O)C2CC2)ccc1-c1ccc2c(c1COc1cc([N+](=O)[O-])ccc1C)N(C)C(=O)C(C)(C)N2` [Compound 1-45], the inhibition at 10 µM worked out at 94%.

As for `COc1cc(OS(=O)(=O)CCC(F)(F)F)ccc1-c1ccc2c(c1COc1cc([N+](=O)[O-])ccc1C)N(C)C(=O)C(C)(C)N2` [Compound 1-46], the inhibition at 10 µM is 95%.

Take `COc1cc(OS(=O)(=O)C2CCCC2)ccc1-c1ccc2c(c1COc1cc([N+](=O)[O-])ccc1C)N(C)C(=O)C(C)(C)N2` [Compound 1-50]: the inhibition at 10 µM is 98%.

Turning to `COc1cc(OS(=O)(=O)CCCCl)ccc1-c1ccc2c(c1COc1cc(F)ccc1C)N(C)C(=O)C(C)(C)N2` [Compound 1-54, 7-[4-(3-chloropropylsulfonyloxy)-2-methoxyphenyl]-8-(5-fluoro-2-methylphenoxymethyl)-1,3,3-trimethyl-3,4-dihydro-1H-quinoxalin-2-one], the inhibition at 10 µM is 99%.

Consider `COc1cc(OS(=O)(=O)C2CCCC2)ccc1-c1ccc2c(c1CNc1cc(F)ccc1C)N(C)C(=O)C(C)(C)N2` [Compound 1-57], for which the inhibition at 10 µM worked out at 93%.

With `CCCS(=O)(=O)Oc1ccc(-c2ccc3c(c2CNc2cc(F)ccc2C)N(C)C(=O)C(C)(C)N3)c(OC)c1` [Compound 1-58], the inhibition at 10 µM was determined as 100%.

With `COc1ccccc1NCc1c(-c2ccc(OS(C)(=O)=O)cc2OC)ccc2c1N(C)C(=O)C(C)(C)N2` [Compound 2-1, 7-(2-Methoxy-4-methylsulfonyloxyphenyl)-8-(2-methoxyphenylaminomethyl)-1,3,3-trimethyl-3,4-dihydro-1H-quinoxalin-2-one], the inhibition at 10 µM worked out at 95%.

With `COc1ccccc1NCc1c(-c2ccc(OS(=O)(=O)c3ccccc3)cc2OC)ccc2c1N(C)C(=O)C(C)(C)N2` [Compound 2-2, 8-(2-Methoxyphenylaminomethyl)-7-(2-methoxy-4-phenylsulfonyloxyphenyl)-1,3,3-trimethyl-3,4-dihydro-1H-quinoxalin-2-one], the inhibition at 10 µM is 89%.

Consider `COc1ccccc1NCc1c(-c2ccc(OS(=O)(=O)C3CC3)cc2OC)ccc2c1N(C)C(=O)C(C)(C)N2` [Compound 2-3], for which the inhibition at 10 µM was 93%.

For the compound `COc1ccccc1NCc1c(-c2ccc(OS(=O)(=O)CCC(F)(F)F)cc2OC)ccc2c1N(C)C(=O)C(C)(C)N2` [Compound 2-4, 8-(2-Methoxyphenylaminomethyl)-7-[2-methoxy-4-(3,3,3-trifluoropropylsulfonyloxy)phenyl]-1,3,3-trimethyl-3,4-dihydro-1H-quinoxalin-2-one], the inhibition at 10 µM came out at 91%.

For the compound `COc1ccccc1NCc1c(-c2ccc(OS(=O)(=O)CC(C)C)cc2OC)ccc2c1N(C)C(=O)C(C)(C)N2` [Compound 2-5, 7-(4-Isobutylsulfonyloxy-2-methoxyphenyl)-8-(2-methoxyphenylaminomethyl)-1,3,3-trimethyl-3,4-dihydro-1H-quinoxalin-2-one], the inhibition at 10 µM is 97%.

Consider `COc1ccccc1NCc1c(-c2ccc(OS(=O)(=O)C(C)C)cc2OC)ccc2c1N(C)C(=O)C(C)(C)N2` [Compound 2-6, 7-(4-Isopropylsulfonyloxy-2-methoxyphenyl)-8-(2-methoxyphenylaminomethyl)-1,3,3-trimethyl-3,4-dihydro-1H-quinoxalin-2-one], for which the inhibition at 10 µM amounted to 100%.

In the case of `COc1ccccc1NCc1c(-c2ccc(OS(=O)(=O)C3CCCC3)cc2OC)ccc2c1N(C)C(=O)C(C)(C)N2` [Compound 2-7, 7-(4-Cyclopentylsulfonyloxy-2-methoxyphenyl)-8-(2-methoxyphenylaminomethyl)-1,3,3-trimethyl-3,4-dihydro-1H-quinoxalin-2-one], the inhibition at 10 µM turned out to be 99%.

For the compound `CCCS(=O)(=O)Oc1ccc(-c2ccc3c(c2CNc2ccccc2OC)N(C)C(=O)C(C)(C)N3)c(OC)c1` [Compound 2-8, 8-(2-Methoxyphenylaminomethyl)-7-(2-methoxy-4-propylsulfonyloxyphenyl)-1,3,3-trimethyl-3,4-dihydro-1H-quinoxalin-2-one], the inhibition at 10 µM is 98%.

As for `COc1cc(OS(=O)(=O)CCCNCc2ccccc2)ccc1-c1ccc2c(c1COc1cc(F)ccc1C)N(C)C(=O)C(C)(C)N2` [Compound 3-1, 7-[4-(3-Benzylaminopropylsulfonyloxy)-2-methoxyphenyl]-8-(5-fluoro-2-methylphenoxymethyl)-1,3,3-trimethyl-3,4-dihydro-1H-quinoxalin-2-one], the inhibition at 10 µM is 94%.

With `CCCNCCCS(=O)(=O)Oc1ccc(-c2ccc3c(c2COc2cc(F)ccc2C)N(C)C(=O)C(C)(C)N3)c(OC)c1` [Compound 3-2, 8-(5-Fluoro-2-methylphenoxymethyl)-7-[2-methoxy-4-(3-propylaminopropylsulfonyloxy)phenyl]-1,3,3-trimethyl-3,4-dihydro-1H-quinoxalin-2-one], the inhibition at 10 µM is 100%.

`COc1cc(OS(=O)(=O)CCCN2CCOCC2)ccc1-c1ccc2c(c1COc1cc(F)ccc1C)N(C)C(=O)C(C)(C)N2` [Compound 3-3, 8-(5-Fluoro-2-methylphenoxymethyl)-7-[2-methoxy-4-[3-(morpholin-4-yl)propylsulfonyloxy]phenyl]-1,3,3-trimethyl-3,4-dihydro-1H-quinoxalin-2-one]: the inhibition at 10 µM came out at 100%.

On to `COc1cc(OS(=O)(=O)CCCN2CCCCC2)ccc1-c1ccc2c(c1COc1cc(F)ccc1C)N(C)C(=O)C(C)(C)N2` [Compound 3-4], for which the inhibition at 10 µM was found to be 71%.

Regarding `COc1cc(OS(=O)(=O)CCCN(C)CCN(C)C)ccc1-c1ccc2c(c1COc1cc(F)ccc1C)N(C)C(=O)C(C)(C)N2` [Compound 3-5, 7-[4-[3-[N-(2-Dimethylaminoethyl)-N-methylamino]propylsulfonyloxy]-2-methoxyphenyl]-8-(5-fluoro-2-methylphenoxymethyl)-1,3,3-trimethyl-3,4-dihydro-1H-quinoxalin-2-one], the inhibition at 10 µM worked out at 100%.

Consider `CNCCN(C)CCCS(=O)(=O)Oc1ccc(-c2ccc3c(c2COc2cc(F)ccc2C)N(C)C(=O)C(C)(C)N3)c(OC)c1` [Compound 3-6, 8-(5-Fluoro-2-methylphenoxymethyl)-7-[2-methoxy-4-[3-[N-(2-methylaminoethyl)-N-methylamino]propylsulfonyloxy]phenyl]-1,3,3-trimethyl-3,4-dihydro-1H-quinoxalin-2-one], for which the inhibition at 10 µM amounted to 99%.
